How the values were obtained:
Format in all cases: cell-based
[1] = biological target: T1, human TLR7 (Homo sapiens, UniProt Q9NYK1); assay: TLR7 inhibition reporter assay (HEK-Blue cells, SEAP reporter, gardiquimod stimulation); details: HEK-Blue cells overexpressing human TLR7, SEAP reporter, gardiquimod 7.5 μM
T1 construct: host or cells: HEK-Blue cells (HEK293-derived reporter line)
T1 sequence (Q9NYK1 27-1049): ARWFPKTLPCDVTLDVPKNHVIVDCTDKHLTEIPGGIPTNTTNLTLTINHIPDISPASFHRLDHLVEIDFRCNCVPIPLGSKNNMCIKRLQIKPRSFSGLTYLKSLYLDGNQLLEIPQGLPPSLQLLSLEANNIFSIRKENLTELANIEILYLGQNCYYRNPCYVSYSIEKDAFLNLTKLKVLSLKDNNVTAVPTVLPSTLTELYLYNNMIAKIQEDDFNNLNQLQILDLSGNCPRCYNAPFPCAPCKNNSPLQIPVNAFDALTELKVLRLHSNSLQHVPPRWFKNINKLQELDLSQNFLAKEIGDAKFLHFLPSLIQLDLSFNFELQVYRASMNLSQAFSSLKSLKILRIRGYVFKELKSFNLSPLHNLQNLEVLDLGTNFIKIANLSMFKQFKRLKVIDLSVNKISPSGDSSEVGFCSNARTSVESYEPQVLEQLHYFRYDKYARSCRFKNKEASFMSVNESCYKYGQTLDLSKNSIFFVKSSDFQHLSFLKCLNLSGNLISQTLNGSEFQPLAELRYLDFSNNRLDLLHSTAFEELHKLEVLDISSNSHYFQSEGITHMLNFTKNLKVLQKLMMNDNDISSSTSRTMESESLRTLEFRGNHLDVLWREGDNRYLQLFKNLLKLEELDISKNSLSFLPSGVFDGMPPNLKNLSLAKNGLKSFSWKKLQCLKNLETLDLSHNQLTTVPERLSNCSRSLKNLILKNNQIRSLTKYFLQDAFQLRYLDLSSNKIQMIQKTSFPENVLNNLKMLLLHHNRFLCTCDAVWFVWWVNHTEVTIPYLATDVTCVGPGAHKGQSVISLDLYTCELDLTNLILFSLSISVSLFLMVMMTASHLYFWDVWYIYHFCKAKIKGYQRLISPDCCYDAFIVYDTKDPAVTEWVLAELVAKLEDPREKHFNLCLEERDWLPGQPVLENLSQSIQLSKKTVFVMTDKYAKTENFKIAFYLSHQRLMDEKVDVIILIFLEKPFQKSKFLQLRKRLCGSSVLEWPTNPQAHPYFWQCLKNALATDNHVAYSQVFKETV
How it was run: (§1)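 HEK-Blue cells overexpressing the receptor, with NF-κB/AP-1-driven SEAP, were pre-treated 30 min at room temperature with compound (0.05 nM–50 μM), then stimulated with gardiquimod 7.5 μM (TLR7), R848 15.9 μM (TLR8) or ODN2006 5 nM (TLR9). SEAP was read after 22 h at 37 °C as percent inhibition.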

[2] = biological target: T2, human TLR8 (Homo sapiens, UniProt Q9NR97); assay: TLR8 inhibition reporter assay (HEK-Blue cells, SEAP reporter, R848 stimulation); details: HEK-Blue cells overexpressing human TLR8, SEAP reporter, R848 15.9 μM
T2 construct: host or cells: HEK-Blue cells (HEK293-derived reporter line)
T2 sequence (Q9NR97 27-1041): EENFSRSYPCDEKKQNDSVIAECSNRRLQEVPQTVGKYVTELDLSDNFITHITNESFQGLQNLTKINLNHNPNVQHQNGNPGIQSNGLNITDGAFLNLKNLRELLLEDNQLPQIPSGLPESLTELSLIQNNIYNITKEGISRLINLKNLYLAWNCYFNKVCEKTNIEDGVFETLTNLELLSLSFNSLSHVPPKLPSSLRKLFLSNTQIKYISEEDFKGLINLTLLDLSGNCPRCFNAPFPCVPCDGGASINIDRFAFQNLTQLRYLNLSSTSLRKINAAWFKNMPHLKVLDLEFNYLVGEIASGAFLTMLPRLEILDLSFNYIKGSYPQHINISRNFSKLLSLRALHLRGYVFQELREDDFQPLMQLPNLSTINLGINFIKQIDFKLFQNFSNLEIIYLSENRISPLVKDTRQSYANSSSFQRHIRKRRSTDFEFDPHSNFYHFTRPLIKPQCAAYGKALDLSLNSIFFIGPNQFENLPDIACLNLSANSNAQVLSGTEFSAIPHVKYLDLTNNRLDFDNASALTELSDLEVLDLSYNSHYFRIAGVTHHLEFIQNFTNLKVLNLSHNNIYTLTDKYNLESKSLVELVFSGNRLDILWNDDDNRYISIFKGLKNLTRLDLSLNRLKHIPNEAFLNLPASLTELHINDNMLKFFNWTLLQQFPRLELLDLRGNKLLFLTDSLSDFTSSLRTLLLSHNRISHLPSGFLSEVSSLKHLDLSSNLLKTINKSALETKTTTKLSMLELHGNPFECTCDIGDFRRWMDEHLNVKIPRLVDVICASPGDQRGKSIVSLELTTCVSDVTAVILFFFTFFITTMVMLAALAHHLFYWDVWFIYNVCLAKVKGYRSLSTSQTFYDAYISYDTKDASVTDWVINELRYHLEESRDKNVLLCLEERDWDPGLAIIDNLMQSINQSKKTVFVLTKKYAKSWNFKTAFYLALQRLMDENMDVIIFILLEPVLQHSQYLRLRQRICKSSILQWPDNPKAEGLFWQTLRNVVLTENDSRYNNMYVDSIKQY
How it was run: as §1

[3] = biological target: T3, human TLR9 (Homo sapiens, UniProt Q9NR96); assay: TLR9 inhibition reporter assay (HEK-Blue cells, SEAP reporter, ODN2006 stimulation); details: HEK-Blue cells overexpressing human TLR9, SEAP reporter, ODN2006 5 nM
T3 construct: host or cells: HEK-Blue cells (HEK293-derived reporter line)
T3 sequence (Q9NR96 26-1032): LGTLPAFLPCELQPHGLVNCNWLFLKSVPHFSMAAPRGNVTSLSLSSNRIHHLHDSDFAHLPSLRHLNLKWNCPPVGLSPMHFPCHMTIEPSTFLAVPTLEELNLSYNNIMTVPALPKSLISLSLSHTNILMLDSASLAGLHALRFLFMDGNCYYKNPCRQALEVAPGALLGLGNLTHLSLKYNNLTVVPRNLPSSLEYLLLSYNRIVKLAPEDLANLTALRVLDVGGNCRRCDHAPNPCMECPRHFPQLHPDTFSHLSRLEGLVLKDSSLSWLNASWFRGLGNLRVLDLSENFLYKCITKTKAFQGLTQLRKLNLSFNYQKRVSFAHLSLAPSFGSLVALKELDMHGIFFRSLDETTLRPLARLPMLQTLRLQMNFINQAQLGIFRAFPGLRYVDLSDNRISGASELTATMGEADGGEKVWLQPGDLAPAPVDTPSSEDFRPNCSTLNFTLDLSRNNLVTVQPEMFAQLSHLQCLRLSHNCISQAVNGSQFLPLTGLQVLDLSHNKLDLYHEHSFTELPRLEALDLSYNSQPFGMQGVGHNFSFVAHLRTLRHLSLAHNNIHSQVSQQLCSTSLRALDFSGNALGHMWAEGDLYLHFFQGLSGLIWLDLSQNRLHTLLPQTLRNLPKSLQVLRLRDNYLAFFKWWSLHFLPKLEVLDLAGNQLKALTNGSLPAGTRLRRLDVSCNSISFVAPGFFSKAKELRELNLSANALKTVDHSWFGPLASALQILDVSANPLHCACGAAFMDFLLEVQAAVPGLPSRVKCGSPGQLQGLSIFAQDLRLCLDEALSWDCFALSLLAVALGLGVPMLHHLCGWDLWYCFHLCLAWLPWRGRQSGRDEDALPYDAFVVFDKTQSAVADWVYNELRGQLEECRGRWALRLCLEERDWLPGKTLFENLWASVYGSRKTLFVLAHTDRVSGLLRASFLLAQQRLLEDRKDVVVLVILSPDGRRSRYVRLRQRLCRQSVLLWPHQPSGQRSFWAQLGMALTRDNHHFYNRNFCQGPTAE
How it was run: as §1

IC50 [1] [nM] | IC50 [2] [nM] | IC50 [3] [nM] | SMILES
100 to 1000 | 100 to 1000 | 100 to 1000 | CC(C)c1c(-c2ccnc3[nH]ncc23)[nH]c2ccc(C3CCN(CCCN(C)C)CC3)cc12 [Example 845, 3-(4-(3-isopropyl-2-(1H-pyrazolo[3,4-b]pyridin-4-yl)-1H-indol-5-yl)piperidin-1-yl)-N,N-dimethylpropan-1-amine]
< 100 | < 100 | 1000 to 50000 | Cc1cc(-c2[nH]c3ccc(C4CCN(CC(=O)N(C)C)CC4)cc3c2C(C)C)cc2cccnc12 [Example 435, 2-(4-(3-isopropyl-2-(8-methylquinolin-6-yl)-1H-indol-5-yl)piperidin-1-yl)-N,N-dimethylacetamide]
< 100 | 100 to 1000 | 100 to 1000 | Cc1c(-c2[nH]c3ccc(C4CCNCC4)cc3c2C(C)C)cn2ccnc2c1C(C)C [Example 273, 8-isopropyl-6-(3-isopropyl-5-(piperidin-4-yl)-1H-indol-2-yl)-7-methylimidazo[1,2-a]pyridine]
< 100 | < 100 | 1000 to 50000 | Cc1cc(-c2[nH]c3ccc(C4CCNCC4)cc3c2C(C)C)cn2cc(C(=O)N(C)C)nc12 [Example 265, 6-(3-isopropyl-5-(piperidin-4-yl)-1H-indol-2-yl)-N,N,8-trimethylimidazo[1,2-a]pyridine-2-carboxamide]
< 100 | 1000 to 50000 | 100 to 1000 | CNCC(=O)N1CCC(c2ccc3[nH]c(-c4cn5cc(C)nc5cc4C)c(C(C)C)c3c2)CC1 [Example 510, 1-(4-(2-(2,7-dimethylimidazo[1,2-a]pyridin-6-yl)-3-isopropyl-1H-indol-5-yl)piperidin-1-yl)-2-(methylamino)ethan-1-one]
< 100 | 100 to 1000 | 1000 to 50000 | CC(C)c1c(-c2ccn3nncc3c2)[nH]c2ccc(C3CCN(CC(=O)N(C)C)CC3)cc12 [Example 302, 2-(4-(2-([1,2,3]triazolo[1,5-a]pyridin-5-yl)-3-isopropyl-1H-indol-5-yl)piperidin-1-yl)-N,N-dimethylacetamide]
< 100 | < 100 | 1000 to 50000 | CCN(C)C(=O)c1cn2cc(-c3[nH]c4ccc(C5CCNCC5)cc4c3C(C)C)cc(C)c2n1 [Example 266, N-ethyl-6-(3-isopropyl-5-(piperidin-4-yl)-1H-indol-2-yl)-N,8-dimethylimidazo[1,2-a]pyridine-2-carboxamide]
< 100 | < 100 | 100 to 1000 | Cc1cc2nccn2cc1-c1[nH]c2ccc(C3CCNCC3)cc2c1C(C)C [Example 110, 6-(3-isopropyl-5-(piperidin-4-yl)-1H-indol-2-yl)-7-methylimidazo[1,2-a]pyridine]
1000 to 50000 | > 3130 | 100 to 1000 | CC(C)c1c(-c2cnc3ccnn3c2)[nH]c2ccc(C3CCN(C(=O)CN(C)C)CC3)cc12 [Example 502, 2-(dimethylamino)-1-(4-(3-isopropyl-2-(pyrazolo[1,5-a]pyrimidin-6-yl)-1H-indol-5-yl)piperidin-1-yl)ethan-1-one]
< 100 | < 100 | 1000 to 50000 | CC(=O)N[C@H]1CCN(CC(=O)N2CCC(c3ccc4[nH]c(-c5ccnc6[nH]ncc56)c(C(C)C)c4c3)CC2)C1 [Example 581, (S)—N-(1-(2-(4-(3-isopropyl-2-(1H-pyrazolo[3,4-b]pyridin-4-yl)-1H-indol-5-yl)piperidin-1-yl)-2-oxoethyl)pyrrolidin-3-yl)acetamide]
< 100 | < 100 | 1000 to 50000 | Cc1c(-c2[nH]c3ccc(C4CCN(C5COC5)CC4)cc3c2C(C)C)nn2ncnc2c1C [Example 730, 6-(3-isopropyl-5-(1-(oxetan-3-yl)piperidin-4-yl)-1H-indol-2-yl)-7,8-dimethyl-[1,2,4]triazolo[1,5-b]pyridazine]
< 100 | < 100 | 1000 to 50000 | Cc1ccc(-c2[nH]c3ccc(C4CCN(CC(=O)N(C)C)CC4)cc3c2C(C)C)c2ncnn12 [Example 385, 2-(4-(3-isopropyl-2-(5-methyl-[1,2,4]triazolo[1,5-a]pyridin-8-yl)-1H-indol-5-yl)piperidin-1-yl)-N,N-dimethylacetamide]
< 100 | < 100 | 100 to 1000 | CNC(=O)c1cn2cc(-c3[nH]c4ccc(C5CCNCC5)cc4c3C(C)C)cc(C)c2n1 [Example 264, 6-(3-isopropyl-5-(piperidin-4-yl)-1H-indol-2-yl)-N,8-dimethylimidazo[1,2-a]pyridine-2-carboxamide]
< 100 | < 100 | 1000 to 50000 | Cc1cc(-c2[nH]c3ccc(C4CCNCC4)cc3c2C(C)C)cn2cc(C(=O)NCCO)nc12 [Example 267, N-(2-hydroxyethyl)-6-(3-isopropyl-5-(piperidin-4-yl)-1H-indol-2-yl)-8-methylimidazo[1,2-a]pyridine-2-carboxamide]

— patent publication US11739098B2 (BRISTOL-MYERS SQUIBB COMPANY, priority 2017, dated 2023)
